Experimental data: patent US20040077580A1, “Antisense modulation of PI3K P85 Expression” (priority 2000, published 2004)
Strand notation (5' to 3'): a small letter for the sugar, then the base; units joined by * are phosphorothioate-linked, units joined directly phosphodiester-linked; [ ] holds rarer units or linkages, { } end groups; capitals alone tell only the bases. e = 2'-O-(2-methoxyethyl) (MOE); [5mC] = 5-methylcytosine; d = 2'-deoxy (DNA)

Tested on: not listed separately
Test: Serum insulin levels in ob/ob mice
Assay type: in vivo, mouse
Settings: male ob/ob mice; 50 mg/kg intraperitoneal once a week for two weeks
Excerpt: Treatment was continued for two weeks with serum insulin levels being measured on day 14.

| Substance | Serum insulin level at day 14 |
| --- | --- |
| GCCACCGCCTATGTCTTCTC (listed as DNA, chemistry not given here) [ISIS 141925, reference compound] | 28 ng/mL |

Tested on: mouse PI3K p85
Test: Inhibition of mouse PI3K p85 mRNA levels by antisense oligonucleotides, real-time quantitative RT-PCR
Assay type: cell-based
Design: concentration or dose not given beside the values
Settings: chimeric phosphorothioate 2′-MOE gapmers, averaged from two experiments
Procedure: Cells were harvested 16 hours after oligonucleotide treatment.
Target sites are indicated by nucleotide numbers, as given in the sequence source reference (Genbank accession no. U50413; SEQ ID NO: 48), to which the oligonucleotide binds.
Cytidine residues are 5-methylcytidines throughout the oligonucleotides.
Data were obtained by real-time quantitative RT-PCR as described in other examples herein and are averaged from two experiments. […] If present, “N.D.” indicates “no data”.

| Substance | % Inhib. of mouse PI3K p85 mRNA levels |
| --- | --- |
| 131408 (antisense e[5mC]*e[5mC]*eA*eT*e[5mC]*dT*dG*dT*d[5mC]*d[5mC]*dT*d[5mC]*d[5mC]*dA*dT*e[5mC]*eA*eA*e[5mC]*eG) [compound 131408] | 88% |
| 131406 (antisense e[5mC]*eG*e[5mC]*eT*eG*d[5mC]*dT*dT*d[5mC]*d[5mC]*dT*d[5mC]*d[5mC]*dA*dA*e[5mC]*eT*e[5mC]*eG*eG) [compound 131406] | 56% |
| cgctccactctcagcttcac (e[5mC]*eG*e[5mC]*eT*e[5mC]*d[5mC]*dA*d[5mC]*dT*d[5mC]*dT*d[5mC]*dA*dG*d[5mC]*eT*eT*e[5mC]*eA*e[5mC]; antisense) [ISIS 131407] | at least 60% |
| 131426 (antisense eG*e[5mC]*eA*eT*e[5mC]*dA*dA*dT*dG*dT*dT*d[5mC]*dT*d[5mC]*dT*e[5mC]*eA*eA*eA*eG) [compound 131426] | 75% |
| 131411 (antisense e[5mC]*e[5mC]*eA*eG*eT*dG*dG*dT*dT*dT*d[5mC]*dA*dT*dT*dG*eT*eA*eG*e[5mC]*e[5mC]) [compound 131411] | 90% |
| 131423 (antisense eT*eT*eT*eG*e[5mC]*dT*dT*d[5mC]*dT*d[5mC]*dA*dG*dA*dG*dG*e[5mC]*e[5mC]*eT*eT*eG) [compound 131423] | 40% |
| 131415 (antisense eA*eT*eA*e[5mC]*eT*dG*dA*dA*dG*d[5mC]*dG*dT*dA*dA*dG*e[5mC]*e[5mC]*eA*eA*e[5mC]) [compound 131415] | 75% |
| 131418 (antisense e[5mC]*e[5mC]*eT*eG*e[5mC]*dT*dG*dG*dT*dA*dT*dT*dT*dG*dG*eA*e[5mC]*eA*e[5mC]*eT) [compound 131418] | 50% |
| tgctggtgctggctgtctct (eT*eG*e[5mC]*eT*eG*dG*dT*dG*d[5mC]*dT*dG*dG*d[5mC]*dT*dG*eT*e[5mC]*eT*e[5mC]*eT; antisense) [ISIS 131416] | at least 60% |
| gcactcatgtctgcagctct (eG*e[5mC]*eA*e[5mC]*eT*d[5mC]*dA*dT*dG*dT*d[5mC]*dT*dG*d[5mC]*dA*eG*e[5mC]*eT*e[5mC]*eT; antisense) [ISIS 131409] | at least 60% |
| 131407 (antisense e[5mC]*eG*e[5mC]*eT*e[5mC]*d[5mC]*dA*d[5mC]*dT*d[5mC]*dT*d[5mC]*dA*dG*d[5mC]*eT*eT*e[5mC]*eA*e[5mC]) [compound 131407] | 85% |
| tcggcgagatagcgtttgaa (eT*e[5mC]*eG*eG*e[5mC]*dG*dA*dG*dA*dT*dA*dG*d[5mC]*dG*dT*eT*eT*eG*eA*eA; antisense) [ISIS 131414] | at least 60% |
| gcatcaatgttctctcaaag (eG*e[5mC]*eA*eT*e[5mC]*dA*dA*dT*dG*dT*dT*d[5mC]*dT*d[5mC]*dT*e[5mC]*eA*eA*eA*eG; antisense) [ISIS 131426] | at least 60% |
| 131409 (antisense eG*e[5mC]*eA*e[5mC]*eT*d[5mC]*dA*dT*dG*dT*d[5mC]*dT*dG*d[5mC]*dA*eG*e[5mC]*eT*e[5mC]*eT) [compound 131409] | 85% |
| ggtgtaagagtgtaatcgcc (eG*eG*eT*eG*eT*dA*dA*dG*dA*dG*dT*dG*dT*dA*dA*eT*e[5mC]*eG*e[5mC]*e[5mC]; antisense) [ISIS 131417] | at least 60% |
| ccatctgtcctccatcaacg (e[5mC]*e[5mC]*eA*eT*e[5mC]*dT*dG*dT*d[5mC]*d[5mC]*dT*d[5mC]*d[5mC]*dA*dT*e[5mC]*eA*eA*e[5mC]*eG; antisense) [ISIS 131408] | at least 60% |

| Substance | % Inhib. of mouse PI3K p85 mRNA levels |
| --- | --- |
| 131416 (antisense eT*eG*e[5mC]*eT*eG*dG*dT*dG*d[5mC]*dT*dG*dG*d[5mC]*dT*dG*eT*e[5mC]*eT*e[5mC]*eT) [compound 131416] | 68% |
| 131414 (antisense eT*e[5mC]*eG*eG*e[5mC]*dG*dA*dG*dA*dT*dA*dG*d[5mC]*dG*dT*eT*eT*eG*eA*eA) [compound 131414] | 73% |
| cgatctctcggtactcagct (e[5mC]*eG*eA*eT*e[5mC]*dT*d[5mC]*dT*d[5mC]*dG*dG*dT*dA*d[5mC]*dT*e[5mC]*eA*eG*e[5mC]*eT; antisense) [ISIS 131420] | at least 60% |
| 131420 (antisense e[5mC]*eG*eA*eT*e[5mC]*dT*d[5mC]*dT*d[5mC]*dG*dG*dT*dA*d[5mC]*dT*e[5mC]*eA*eG*e[5mC]*eT) [compound 131420] | 79% |
| 131422 (antisense e[5mC]*e[5mC]*eA*eT*eA*dG*d[5mC]*d[5mC]*dG*dG*dT*dG*dG*d[5mC]*dA*eG*eT*e[5mC]*eT*eT) [compound 131422] | 40% |
| gctcccgacattccacgtct (eG*e[5mC]*eT*e[5mC]*e[5mC]*d[5mC]*dG*dA*d[5mC]*dA*dT*dT*d[5mC]*d[5mC]*dA*e[5mC]*eG*eT*e[5mC]*eT; antisense) [ISIS 131421] | at least 60% |
| atactgaagcgtaagccaac (eA*eT*eA*e[5mC]*eT*dG*dA*dA*dG*d[5mC]*dG*dT*dA*dA*dG*e[5mC]*e[5mC]*eA*eA*e[5mC]; antisense) [ISIS 131415] | at least 60% |
| 131412 (antisense e[5mC]*eT*eT*eG*e[5mC]*dT*dG*d[5mC]*dT*d[5mC]*d[5mC]*dG*dT*dG*dT*e[5mC]*eA*eG*e[5mC]*eT) [compound 131412] | 85% |
| cttgctgctccgtgtcagct (e[5mC]*eT*eT*eG*e[5mC]*dT*dG*d[5mC]*dT*d[5mC]*d[5mC]*dG*dT*dG*dT*e[5mC]*eA*eG*e[5mC]*eT; antisense) [ISIS 131412] | at least 60% |
| 131419 (antisense eG*e[5mC]*eT*e[5mC]*e[5mC]*dT*dG*dG*dG*dT*dT*dT*dG*dG*d[5mC]*eA*eT*eT*eG*eT) [compound 131419] | 45% |
| 131421 (antisense eG*e[5mC]*eT*e[5mC]*e[5mC]*d[5mC]*dG*dA*d[5mC]*dA*dT*dT*d[5mC]*d[5mC]*dA*e[5mC]*eG*eT*e[5mC]*eT) [compound 131421] | 65% |
| 131410 (antisense e[5mC]*e[5mC]*eT*eG*eG*d[5mC]*d[5mC]*dA*dT*d[5mC]*dA*d[5mC]*dT*dG*dA*eA*eT*e[5mC]*e[5mC]*eA) [compound 131410] | 95% |
| ccagtggtttcattgtagcc (e[5mC]*e[5mC]*eA*eG*eT*dG*dG*dT*dT*dT*d[5mC]*dA*dT*dT*dG*eT*eA*eG*e[5mC]*e[5mC]; antisense) [ISIS 131411] | at least 60% |
| 131417 (antisense eG*eG*eT*eG*eT*dA*dA*dG*dA*dG*dT*dG*dT*dA*dA*eT*e[5mC]*eG*e[5mC]*e[5mC]) [compound 131417] | 78% |
| 131413 (antisense eT*e[5mC]*eT*e[5mC]*e[5mC]*dA*dA*dG*dT*d[5mC]*d[5mC]*dA*d[5mC]*dT*dG*eA*e[5mC]*eG*e[5mC]*eG) [compound 131413] | 56% |

Tested on: PI3K p85 mRNA
Test: PI3K p85 mRNA expression in liver and fat of treated mice
Assay type: in vivo, mouse
Settings: male ob/ob mice; 25 mg/kg intraperitoneal once a week for two weeks; percentage of saline treated control
Procedure: Ob/ob mice are used as a model of obesity. The ob/ob phenotype is due to a mutation in the leptin gene on a C57BL/6J-Lep(ob) background.
In accordance with the present invention, the effects of ISIS 131410 (SEQ ID NO: 56) on PI3K p85 mRNA expression was investigated in the ob/ob mouse model of obesity.
Mice were treated at a dose of 25 mg/kg of ISIS 141925 or 25 mg/kg of ISIS 131410.
Treatment was continued for two weeks after which the mice were sacrificed and tissues collected for mRNA analysis. RNA values were normalized and are expressed as a percentage of saline treated control.
Lean littermates (ob/wt) were also examined for mRNA reduction of PI3K p85 in the liver at doses of 25 and 50 mg/kg of ISIS 131410 or saline treatment. In these animals, at both doses, the level of expression was reduced only minimally to 80% of control.

| Substance | PI3K p85 mRNA level in fat | PI3K p85 mRNA level in liver |
| --- | --- | --- |
| GCCACCGCCTATGTCTTCTC (listed as DNA, chemistry not given here) [ISIS 141925, reference compound] | no reduction | no reduction |

Tested on: not given
Test: not given
Settings: ob/ob mice; 25 or 50 mg/kg intraperitoneal once a week; starting level 250 mg/dL at day 1

| Substance | Blood glucose level at day 14 |
| --- | --- |
| GCCACCGCCTATGTCTTCTC (listed as DNA, chemistry not given here) [ISIS 141925, reference compound] | 240 mg/dL |
